Consider 19 compounds from patent US10899754B2, “Modulators of indoleamine 2,3-dioxygenase” (GLAXOSMITHKLINE INTELLECTUAL PROPERTY DEVELOPMENT LIMITED, priority 2016, dated 2021).

Data set [1] deals with human peripheral blood mononuclear cells (PBMC). The data set can be described thus: PBMC cytotoxicity assay (CellTiter-Glo). The class given is cell-based. The following applies: 2 days, pCC50. The procedure: (§1) Compounds of the present invention were tested via high-throughput cellular assays utilizing detection of kynurenine via mass spectrometry and cytotoxicity as end-points. For the mass spectrometry and cytotoxicity assays, human peripheral blood mononuclear cells (PBMC) (PB003F; AllCells®, Alameda, Calif.) were stimulated with human interferon-γ (IFN-γ) (Sigma-Aldrich Corporation, St. Louis, Mo.) and lipopolysaccharide from Salmonella minnesota (LPS) (Invivogen, San Diego, Calif.) to induce the expression of indoleamine 2, 3-dioxygenase (IDO1). Compounds with IDO1 inhibitory properties decreased the amount of kynurenine produced by the cells via the tryptophan catabolic pathway. Cellular toxicity due to the effect of compound treatment was measured using CellTiter-Glo® reagent (CTG) (Promega Corporation, Madison, Wis.), which is based on luminescent detection of ATP, an indicator of metabolically active cells.
(§2) In preparation for the assays, test compounds were serially diluted 3-fold in DMSO from a typical top concentration of 1 mM or 5 mM and plated at 0.5 μL in 384-well, polystyrene, clear bottom, tissue culture treated plates with lids (Greiner Bio-One, Kremsmünster, Austria) to generate 11-point dose response curves. Low control wells (0% kynurenine or 100% cytotoxicity) contained either 0.5 μL of DMSO in the presence of unstimulated (−IFN-γ/−LPS) PBMCs for the mass spectrometry assay or 0.5 μL of DMSO in the absence of cells for the cytotoxicity assay, and high control wells (100% kynurenine or 0% cytotoxicity) contained 0.5 μL of DMSO in the presence of stimulated (+IFN-γ/+LPS) PBMCs for both the mass spectrometry and cytotoxicity assays.
(§3) Frozen stocks of PBMCs were washed and recovered in RPMI 1640 medium (Thermo Fisher Scientific, Inc., Waltham, Mass.) supplemented with 10% v/v heat-inactivated fetal bovine serum (FBS) (Thermo Fisher Scientific, Inc., Waltham, Mass.), and 1× penicillin-streptomycin antibiotic solution (Thermo Fisher Scientific, Inc., Waltham, Mass.). The cells were diluted to 1,000,000 cells/mL in the supplemented RPMI 1640 medium. 50 μL of either the cell suspension, for the mass spectrometry assay, or medium alone, for the cytotoxicity assay, were added to the low control wells, on the previously prepared 384-well compound plates, resulting in 50,000 cells/well or 0 cells/well respectively. IFN-γ and LPS were added to the remaining cell suspension at final concentrations of 100 ng/ml and 50 ng/ml respectively, and 50 μL of the stimulated cells were added to all remaining wells on the 384-well compound plates. The plates, with lids, were then placed in a 37° C., 5% CO2 humidified incubator for 2 days.
(§4) Following incubation, the 384-well plates were removed from the incubator and allowed to equilibrate to room temperature for 30 minutes. For the cytotoxicity assay, CellTiter-Glo® was prepared according to the manufacturer's instructions, and 40 μL were added to each plate well. After a twenty minute incubation at room temperature, luminescence was read on an EnVision® Multilabel Reader (PerkinElmer Inc., Waltham, Mass.). For the mass spectrometry assay, 10 μL of supernatant from each well of the compound-treated plates were added to 40 μL of acetonitrile, containing 10 μM of an internal standard for normalization, in 384-well, polypropylene, V-bottom plates (Greiner Bio-One, Kremsmünster, Austria) to extract the organic analytes. Following centrifugation at 2000 rpm for 10 minutes, 10 μL from each well of the acetonitrile extraction plates were added to 90 μL of sterile, distilled H2O in 384-well, polypropylene, V-bottom plates for analysis of kynurenine and the internal standard on the RapidFire 300 (Agilent Technologies, Santa Clara, Calif.) and 4000 QTRAP MS (SCIEX, Framingham, Mass.). MS data were integrated using Agilent Technologies' RapidFire Integrator software, and data were normalized for analysis as a ratio of kynurenine to the internal standard. […]

Data set [2] deals with indoleamine 2, 3-dioxygenase (IDO1) (Homo sapiens, UniProt P14902). Kind of data set: IDO1 PBMC RapidFire MS assay (kynurenine detection by mass spectrometry). To be noted: human PBMC stimulated with IFN-γ and LPS, 2 days, pIC50, read-out: PBMC PXC50 (converted). More on the design: to induce the expression of indoleamine 2, 3-dioxygenase (IDO1); host or cells: human PBMC stimulated with IFN-gamma and LPS. The class given is cell-based. On the procedure: IDO1 PBMC RapidFire MS Assay
as §1, §2, §3, §4

Sequence of indoleamine 2, 3-dioxygenase (IDO1) (P14902 whole entry): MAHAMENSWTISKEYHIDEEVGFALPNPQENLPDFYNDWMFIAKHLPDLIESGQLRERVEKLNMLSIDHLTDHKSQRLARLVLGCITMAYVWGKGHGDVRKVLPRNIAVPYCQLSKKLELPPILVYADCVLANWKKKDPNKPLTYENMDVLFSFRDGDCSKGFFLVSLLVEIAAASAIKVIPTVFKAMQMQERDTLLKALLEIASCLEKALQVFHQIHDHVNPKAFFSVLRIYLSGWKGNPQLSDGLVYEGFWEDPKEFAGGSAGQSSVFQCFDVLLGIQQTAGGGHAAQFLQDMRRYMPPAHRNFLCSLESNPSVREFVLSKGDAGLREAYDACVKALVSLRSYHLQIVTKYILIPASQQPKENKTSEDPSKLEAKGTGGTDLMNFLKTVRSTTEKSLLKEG

Consider `CC(C)CN(c1ccc([C@H](C)CC(=O)O)cc1Nc1nc(C(F)(F)F)ns1)C1CCN(C(=O)OC(C)(C)C)CC1` [Example 69, (R)-3-(4-((1-(tert-butoxycarbonyl)piperidin-4-yl) (isobutyl)amino)-3-((3-(trifluoromethyl)-1,2,4-thiadiazol-5-yl)amino)phenyl)butanoic Acid], for which the “PBMC TOX PXC50” value in data set [1] is reported as less than 5. For the same compound, the IC50 in data set [2] is 2.51 nM.
Regarding `COC(=O)c1c[nH]c(Nc2cc([C@H](C)CC(=O)O)ccc2N(CC(C)C)C2CCOCC2)n1` [Example 29, (R)-3-(4-(isobutyl(tetrahydro-2H-pyran-4-yl)amino)-3-((4-(methoxycarbonyl)-1H-imidazol-2-yl)amino)phenyl)butanoic acid], the “PBMC TOX PXC50” value in data set [1] is on record as less than 5. Moreover, the IC50 in data set [2] was 6.31 nM.
With `CC(C)CN(c1ccc(C(C)CC(=O)O)cc1Nc1nnc(C(=O)NC2CC2)s1)C1CCCCC1` (centres unmarked) [example 238, 3-{4-[cyclohexyl(2-methylpropyl)amino]-3-{[5-(cyclopropylcarbamoyl)-1,3,4-thiadiazol-2-yl]amino}phenyl}butanoic acid], the “PBMC TOX PXC50” value in data set [1] is less than 5. The IC50 in data set [2] is 20 nM.
The matching figures for `CC(C)CN(c1ccc([C@H](C)CC(=O)O)cc1Nc1ccc(Cl)c(C#N)n1)C1CCOCC1` [Example 30, (R)-3-(3-((5-chloro-6-cyanopyridin-2-yl)amino)-4-(isobutyl(tetrahydro-2H-pyran-4-yl)amino)phenyl)butanoic Acid]: less than 5 and 7.94 nM.
On to `CO[C@H]1CC[C@H](N(CC(C)C)c2ccc([C@H](C)CC(=O)O)cc2Nc2ccc(Cl)cn2)CC1` [Example 55, (R)-3-(3-((5-chloropyridin-2-yl)amino)-4-(isobutyl((1r,4R)-4-methoxycyclohexyl)amino)phenyl)butanoic Acid], for which, in data set [1], the “PBMC TOX PXC50” value is listed as less than 5. Further, in data set [2], the IC50 is 3.16 nM.
Take `Cc1ccc(CC(=O)Nc2cc(-c3ccccc3C(=O)O)ccc2N(CC(C)C)C23CC(C2)C3)cc1` [example 268, 4′-({bicyclo[1.1.1]pentan-1-yl}(2-methylpropyl)amino)-3′-[2-(4-methylphenyl)acetamido]-[1,1′-biphenyl]-2-carboxylic acid]: the “PBMC TOX PXC50” value in data set [1] is listed as less than 5. The IC50 in data set [2] was 2000 nM.
Take `CC(C)CN(c1ccc(C(C)NC(N)=O)cc1Nc1nc(C(F)(F)F)ns1)C1CCOCC1` (centres unmarked) [example 249, (1-{4-[(2-methylpropyl)(oxan-4-yl)amino]-3-{[3-(trifluoromethyl)-1,2,4-thiadiazol-5-yl]amino}phenyl}ethyl) urea]: in data set [1], the “PBMC TOX PXC50” value is on record as less than 5. For the same compound, the IC50 in data set [2] was 20 nM.
For `COCCC(=O)N1CCC(N(CC(C)C)c2ccc([C@H](C)CC(=O)O)cc2Nc2nc(C(F)(F)F)ns2)CC1` [Example 68, (R)-3-(4-(isobutyl(1-(3-methoxypropanoyl)piperidin-4-yl)amino)-3-((3-(trifluoromethyl)-1,2,4-thiadiazol-5-yl)amino)phenyl)butanoic Acid], in data set [1], the “PBMC TOX PXC50” value was less than 5. In addition, the IC50 in data set [2] was 2 nM.
Consider `CC(C)CN(c1ccc([C@H](C)CC(=O)O)cc1Nc1nc(C(C)C)ns1)C1CCOCC1` [Example 26, (R)-3-(4-(isobutyl(tetrahydro-2H-pyran-4-yl)amino)-3-((3-isopropyl-1,2,4-thiadiazol-5-yl)amino)phenyl)butanoic Acid], for which, in data set [1], the “PBMC TOX PXC50” value is on record as less than 5. The IC50 in data set [2] is 3.16 nM.
As to `CC(C)CN(CC(C)C)c1ccc([C@H](C)CC(=O)O)cc1Nc1ccc(=O)n(C)c1` [example 218, (3R)-3-{4-[bis(2-methylpropyl)amino]-3-[(1-methyl-6-oxo-1,6-dihydropyridin-3-yl)amino]phenyl}butanoic acid], the “PBMC TOX PXC50” value in data set [1] is given as less than 5. Further, the IC50 in data set [2] is 2000 nM.
On to `CO[C@H]1CC[C@@H](N(CC(C)C)c2ccc([C@H](C)CC(=O)O)cc2Nc2nc(C(F)(F)F)ns2)CC1` [Example 43, (R)-3-(4-(isobutyl((1s,4S)-4-methoxycyclohexyl)amino)-3-((3-(trifluoromethyl)-1,2,4-thiadiazol-5-yl)amino)phenyl)butanoic Acid], for which the “PBMC TOX PXC50” value in data set [1] is given as less than 5. Further, the IC50 in data set [2] is 0.631 nM.
The matching figures for `CC(C)CN(c1ccc([C@H](C)CC(=O)O)cc1Nc1n[nH]c(C#N)n1)C1CCCCC1` [Example 83, (R)-3-(3-((5-cyano-1H-1,2,4-triazol-3-yl)amino)-4-(cyclohexyl(isobutyl)amino)phenyl)butanoic Acid]: less than 5 and 7.94 nM.
`CC(C)CN(CCCCCNC(=O)OC1CC/C=C/CCC1)c1ccc(C(C)CC(=O)O)cc1Nc1nc(C(F)(F)F)ns1` (centres unmarked) [example 259, 3-(4-{[5-({[(4E)-cyclooct-4-en-1-yloxy]carbonyl}amino)pentyl](2-methylpropyl)amino}-3-{[3-(trifluoromethyl)-1,2,4-thiadiazol-5-yl]amino}phenyl)butanoic acid]: in data set [1], the “PBMC TOX PXC50” value was less than 4.3. Further, the IC50 in data set [2] was 100 nM.
The matching figures for `CO[C@H]1CC[C@H](N(CC(C)C)c2ccc([C@H](C)CC(=O)O)cc2Nc2n[nH]c(C(F)(F)F)n2)CC1` [Example 52]: less than 5 and 10 nM.
With `CC(C)CN(c1ccc([C@H](C)CC(=O)O)cc1Nc1ccc(Cl)c(Cl)n1)C1CCOCC1` [Example 33, (R)-3-(3-((5,6-Dichloropyridin-2-yl)amino)-4-(isobutyl(tetrahydro-2H-pyran-4-yl)amino)phenyl)butanoic Acid], the “PBMC TOX PXC50” value in data set [1] is recorded as less than 5. Further, in data set [2], the IC50 is 6.31 nM.
In the case of `CC(C)CN(c1ccc([C@H](C)CC(=O)O)cc1Nc1n[nH]c(C(F)(F)F)n1)[C@H]1CC[C@@H](Br)CC1` [Example 93, (R)-3-(4-(((cis)-4-bromocyclohexyl) (isobutyl)amino)-3-((5-(trifluoromethyl)-1H-1,2,4-triazol-3-yl)amino)phenyl)butanoic Acid], the “PBMC TOX PXC50” value in data set [1] is less than 5. In addition, the IC50 in data set [2] is 1.26 nM.
Take `CC(C)CN(c1ccc([C@H](C)CC(=O)O)cc1Nc1n[nH]c(C(N)=O)n1)C1CCOCC1` [example 227, (3R)-3-{3-[(5-carbamoyl-1H-1,2,4-triazol-3-yl)amino]-4-[(2-methylpropyl)(oxan-4-yl)amino]phenyl}butanoic acid]: the “PBMC TOX PXC50” value in data set [1] is given as less than 5. The IC50 in data set [2] was 501 nM.
The matching figures for `CC(C)CN(c1ccc([C@H](C)Cc2nnn[nH]2)cc1Nc1nc(Cl)ns1)C1CCOCC1` [Example 100, (R)-4-(1-(1H-tetrazol-5-yl)propan-2-yl)-N^2-(3-chloro-1,2,4-thiadiazol-5-yl)-N^1-isobutyl-N^1-(tetrahydro-2H-pyran-4-yl)benzene-1,2-diamine]: less than 5 and 2 nM.
The matching figures for `CC(C)CN(c1ccc([C@H](C)CC(=O)O)cc1Nc1n[nH]c(C(F)(F)F)n1)[C@H]1CC[C@H](O)CC1` (racemic) [example 219, (3RS)-3-{4-[(2-methylpropyl)[(1rs&,4rs&)-4-hydroxycyclohexyl]amino]-3-{[5-(trifluoromethyl)-1H-1,2,4-triazol-3-yl]amino}phenyl}butanoic acid]: less than 5 and 100 nM.
